The values that follow come from ChEMBL document CHEMBL3813646, “Small molecules that target phosphorylation dependent protein-protein interaction” (Bioorg Med Chem, 2016).

Residues, ends and D or L forms follow the SMILES beside them.

For orientation: Kd means the free concentration of one partner at which half of the binding sites on the other are occupied at equilibrium, for simple one-to-one binding. The low end stands for tighter binding, the high end for weaker binding. In general, IC50 refers to the concentration needed to halve the response being measured. For orientation: inhibition means the percentage by which the read-out fell short of the control. A lower inhibition goes with little suppression.

The target of assay [1] is T1, 14-3-3 protein sigma (Homo sapiens) (UniProt P31947).
T1 sequence (whole entry): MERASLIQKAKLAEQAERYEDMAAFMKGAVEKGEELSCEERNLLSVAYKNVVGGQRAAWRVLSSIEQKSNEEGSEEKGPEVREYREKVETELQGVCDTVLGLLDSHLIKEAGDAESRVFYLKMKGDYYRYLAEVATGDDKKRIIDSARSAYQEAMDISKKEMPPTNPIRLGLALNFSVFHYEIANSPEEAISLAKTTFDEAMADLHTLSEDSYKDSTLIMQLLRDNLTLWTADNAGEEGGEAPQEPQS
In words: Induction of human 14-3-3sigma binding to TASK-3 using FAM-370RRK-pS-V374-COOH by fluorescence polarization assay relative to control.

Assay [2] deals with T2, 14-3-3 protein beta/alpha (Homo sapiens, UniProt P31946).
T2 sequence (P31946 whole entry): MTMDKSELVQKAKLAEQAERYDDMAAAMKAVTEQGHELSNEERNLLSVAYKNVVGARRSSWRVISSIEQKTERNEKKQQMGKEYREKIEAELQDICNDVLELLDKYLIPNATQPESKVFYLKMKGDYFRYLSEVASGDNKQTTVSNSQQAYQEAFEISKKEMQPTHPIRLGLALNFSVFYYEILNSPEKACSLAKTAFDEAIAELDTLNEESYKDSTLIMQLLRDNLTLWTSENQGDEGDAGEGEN
As to the kind of experiment: Binding affinity to GST-tagged 125I-labelled 14-3-3beta (unknown origin) expressed in Escherichia coli by solid phase assay.

In the next assay the target is T3, 14-3-3 protein eta (Homo sapiens, UniProt Q04917).
T3 sequence (Q04917 whole entry): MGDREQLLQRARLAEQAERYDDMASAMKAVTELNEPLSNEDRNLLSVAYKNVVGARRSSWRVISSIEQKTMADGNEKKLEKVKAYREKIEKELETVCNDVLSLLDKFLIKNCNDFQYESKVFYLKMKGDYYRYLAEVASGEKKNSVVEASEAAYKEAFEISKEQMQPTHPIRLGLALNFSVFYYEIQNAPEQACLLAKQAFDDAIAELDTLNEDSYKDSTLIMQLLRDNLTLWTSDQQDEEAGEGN
As to the kind of experiment: Binding affinity to GST-tagged 125I-labelled 14-3-3eta (unknown origin) expressed in Escherichia coli by solid phase assay.

The next assay deals with T4, 14-3-3 protein theta (Homo sapiens, UniProt P27348).
T4 sequence (P27348 whole entry): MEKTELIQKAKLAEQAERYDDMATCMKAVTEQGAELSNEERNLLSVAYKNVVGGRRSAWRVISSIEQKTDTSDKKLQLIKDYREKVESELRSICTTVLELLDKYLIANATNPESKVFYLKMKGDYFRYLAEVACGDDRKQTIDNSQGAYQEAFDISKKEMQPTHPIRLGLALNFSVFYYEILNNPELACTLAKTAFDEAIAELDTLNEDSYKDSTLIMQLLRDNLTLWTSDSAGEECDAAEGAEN
As to the kind of experiment: Binding affinity to GST-tagged 125I-labelled full length human 14-3-3tau expressed in Escherichia coli by solid phase assay.

The target in assay [3] is Serine/threonine-protein kinase PLK3 (Homo sapiens, UniProt Q9H4B4). As to the kind of experiment: Inhibition of human Plk3 PBD (335 to 646 residues) using 5-carboxyfluorescein-GPLATSpTPKNG-OH as substrate incubated for 1 hr prior to addition of substrate by fluorescence polarization assay. On the technique in general: In fluorescence polarisation assays a small probe gives low polarisation when free and higher when bound to something large.
Serine/threonine-protein kinase PLK3, sequence (Q9H4B4 whole entry, the tested form may be a part): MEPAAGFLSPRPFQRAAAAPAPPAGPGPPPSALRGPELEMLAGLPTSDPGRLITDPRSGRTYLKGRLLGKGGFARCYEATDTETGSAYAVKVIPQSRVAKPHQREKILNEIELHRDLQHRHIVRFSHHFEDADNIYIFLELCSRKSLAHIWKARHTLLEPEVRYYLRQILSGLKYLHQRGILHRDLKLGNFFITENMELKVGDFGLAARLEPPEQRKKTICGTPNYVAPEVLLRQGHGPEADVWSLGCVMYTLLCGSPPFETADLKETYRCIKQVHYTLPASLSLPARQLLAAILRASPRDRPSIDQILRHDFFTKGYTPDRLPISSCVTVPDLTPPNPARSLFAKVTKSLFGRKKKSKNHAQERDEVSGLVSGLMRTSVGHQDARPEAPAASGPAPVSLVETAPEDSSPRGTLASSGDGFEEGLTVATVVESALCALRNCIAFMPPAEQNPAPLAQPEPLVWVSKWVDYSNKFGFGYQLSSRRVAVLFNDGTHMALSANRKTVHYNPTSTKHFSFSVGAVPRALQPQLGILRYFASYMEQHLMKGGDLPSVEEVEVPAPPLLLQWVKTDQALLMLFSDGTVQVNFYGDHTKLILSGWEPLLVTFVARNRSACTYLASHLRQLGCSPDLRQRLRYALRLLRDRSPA

Assay [4] concerns the target Peptidyl-prolyl cis-trans isomerase NIMA-interacting 1 (Homo sapiens) (UniProt Q13526). In words: Inhibition of Pin1 (1 to 162 residues) (unknown origin) using 5-carboxyfluorescein-GHFDpTYLI-RR-OH as substrate at 40 uM incubated for 1 hr prior to addition of substrate by fluorescence polarization assay.
Assay [5] addresses Serine/threonine-protein kinase PLK1 (Homo sapiens, UniProt P53350). As to the kind of experiment: Inhibition of human Plk1 PBD (326 to 603 residues) using 5-carboxyfluorescein-GPMQSpTPLNG-OH as substrate incubated for 1 hr prior to addition of substrate by fluorescence polarization assay.
The target in assay [6] is Serine/threonine-protein kinase Chk2 (Homo sapiens) (UniProt O96017). As to the kind of experiment: Inhibition of Chk2 FHA (1 to 225 residues) (unknown origin) using 5-carboxyfluorescein-GHFDpTYLI-RR-OH as substrate at 40 uM incubated for 1 hr prior to addition of substrate by fluorescence polarization assay.
Serine/threonine-protein kinase Chk2 (Homo sapiens), sequence (O96017 whole entry, the tested form may be a part): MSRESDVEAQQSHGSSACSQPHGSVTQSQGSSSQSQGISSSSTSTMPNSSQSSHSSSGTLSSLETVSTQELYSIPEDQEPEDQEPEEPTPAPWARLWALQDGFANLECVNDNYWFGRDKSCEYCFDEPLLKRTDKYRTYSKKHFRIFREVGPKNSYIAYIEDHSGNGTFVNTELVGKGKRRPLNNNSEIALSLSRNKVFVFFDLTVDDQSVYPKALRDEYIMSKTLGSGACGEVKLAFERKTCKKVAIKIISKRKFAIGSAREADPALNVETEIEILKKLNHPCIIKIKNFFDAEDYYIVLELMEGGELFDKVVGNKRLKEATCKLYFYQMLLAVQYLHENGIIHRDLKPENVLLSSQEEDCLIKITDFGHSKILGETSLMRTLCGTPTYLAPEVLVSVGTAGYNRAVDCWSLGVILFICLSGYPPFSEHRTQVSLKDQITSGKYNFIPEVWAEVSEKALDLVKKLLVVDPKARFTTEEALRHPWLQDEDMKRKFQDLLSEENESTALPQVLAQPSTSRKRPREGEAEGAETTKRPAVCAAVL
In assay [7] the target is Serine/threonine-protein kinase PLK2 (Homo sapiens, UniProt Q9NYY3). As to the kind of experiment: Inhibition of human Plk2 PBD (355 to 685 residues) using 5-carboxyfluorescein-GPMQTSpTPKNG-OH as substrate incubated for 1 hr prior to addition of substrate by fluorescence polarization assay.
Serine/threonine-protein kinase PLK2, sequence (Q9NYY3 whole entry, the tested form may be a part): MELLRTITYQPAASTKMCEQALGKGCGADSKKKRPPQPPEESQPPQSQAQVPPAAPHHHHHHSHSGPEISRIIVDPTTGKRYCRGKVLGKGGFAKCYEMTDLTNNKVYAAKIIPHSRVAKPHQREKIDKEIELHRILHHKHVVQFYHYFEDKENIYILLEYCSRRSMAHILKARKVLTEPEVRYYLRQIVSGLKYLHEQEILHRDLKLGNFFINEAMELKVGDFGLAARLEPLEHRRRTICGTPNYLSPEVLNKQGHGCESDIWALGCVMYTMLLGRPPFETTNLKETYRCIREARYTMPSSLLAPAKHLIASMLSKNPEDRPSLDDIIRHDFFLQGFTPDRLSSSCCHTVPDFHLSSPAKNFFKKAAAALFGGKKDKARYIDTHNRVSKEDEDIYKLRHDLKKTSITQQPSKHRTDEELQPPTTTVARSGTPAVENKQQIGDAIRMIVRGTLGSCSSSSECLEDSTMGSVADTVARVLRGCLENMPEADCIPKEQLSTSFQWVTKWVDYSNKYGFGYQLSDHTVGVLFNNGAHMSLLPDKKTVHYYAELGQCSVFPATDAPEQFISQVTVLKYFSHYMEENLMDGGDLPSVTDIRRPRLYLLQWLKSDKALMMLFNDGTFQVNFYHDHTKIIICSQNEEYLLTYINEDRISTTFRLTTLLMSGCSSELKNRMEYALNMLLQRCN
In the next assay the target is T5, 14-3-3 protein sigma (Homo sapiens, UniProt P31947).
T5 sequence (P31947 whole entry): T1 sequence (whole entry)
In words: Inhibition of 14-3-3sigma (unknown origin) assessed as reduction in 14-3-3sigma- mediated increase in MMP1 mRNA by cell based assay.

Peptidyl-prolyl cis-trans isomerase NIMA-interacting 1 (Homo sapiens), sequence (Q13526 whole entry, the tested form may be a part): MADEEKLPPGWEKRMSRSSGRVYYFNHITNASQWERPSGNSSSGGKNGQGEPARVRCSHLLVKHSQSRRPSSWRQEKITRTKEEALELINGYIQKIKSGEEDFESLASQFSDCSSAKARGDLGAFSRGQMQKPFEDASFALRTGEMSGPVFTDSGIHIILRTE
Serine/threonine-protein kinase PLK1, sequence (P53350 whole entry, the tested form may be a part): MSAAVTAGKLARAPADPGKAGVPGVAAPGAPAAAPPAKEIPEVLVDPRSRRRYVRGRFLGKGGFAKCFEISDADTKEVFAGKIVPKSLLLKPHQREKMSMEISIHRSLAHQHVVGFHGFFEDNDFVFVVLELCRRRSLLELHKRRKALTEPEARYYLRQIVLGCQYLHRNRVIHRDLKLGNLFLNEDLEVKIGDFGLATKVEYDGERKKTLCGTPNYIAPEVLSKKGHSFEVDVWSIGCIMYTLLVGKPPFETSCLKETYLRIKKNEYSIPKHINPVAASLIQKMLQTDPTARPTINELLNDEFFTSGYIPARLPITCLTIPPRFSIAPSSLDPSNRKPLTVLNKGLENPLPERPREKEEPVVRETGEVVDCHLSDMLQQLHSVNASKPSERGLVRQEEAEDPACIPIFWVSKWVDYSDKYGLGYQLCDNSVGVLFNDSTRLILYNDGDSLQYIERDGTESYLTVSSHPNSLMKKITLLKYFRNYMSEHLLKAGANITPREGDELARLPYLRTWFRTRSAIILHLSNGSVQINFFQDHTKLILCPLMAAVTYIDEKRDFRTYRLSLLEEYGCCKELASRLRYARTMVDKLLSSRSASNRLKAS

For `COC[C@H]1CC[C@@H]2/C1=C\[C@]1(C)C(=C(C(C)C)[C@@H]3CCO[C@@H]31)[C@@H](O[C@H]1O[C@@H]3COC(C)(C)O[C@H]3[C@H](O)[C@H]1O)[C@H](O)[C@@H]2C`, the fold change (FC) in assay [1] is 19.
`CSCC[C@H](NC(=O)[C@H](CC(N)=O)NC(=O)[C@H](C)NC(=O)[C@H](CCC(=O)O)NC(=O)[C@H](CC(C)C)NC(=O)[C@H](CC(=O)O)NC(=O)[C@H](CC(C)C)NC(=O)[C@H](Cc1c[nH]c2ccccc12)NC(=O)[C@H](CO)NC(=O)[C@H](CC(C)C)NC(=O)[C@H](CC(=O)O)NC(=O)[C@H](CCCNC(=N)N)NC(=O)[C@@H]1CCCN1C(=O)[C@@H](NC(=O)[C@H](CS)NC(=O)[C@H](Cc1cnc[nH]1)NC(=O)[C@@H]1CCCN1)C(C)C)C(=O)N[C@@H](CS)C(=O)N[C@@H](CC(C)C)C(=O)N1CCC[C@H]1C(=O)O` (H-PHCVPRDLSWLDLEANMCLP-OH): the dissociation constant Kd (in assay [2]; on 14-3-3 protein eta; on 14-3-3 protein theta) was 70 nM throughout.
As for `COc1ccc(Br)cc1/C=c1\sc2nc(=O)c(C)nn2c1=O`, the IC50 in assay [3] came out at 3000 nM; in [5] it was 3200 nM; in assay [7], 1700 nM. In addition, the figures for the inhibition in assay [4] and in [6] were 32% and 35%, respectively.
Turning to `O=C(COc1ccccc1P(=O)(O)O)Nc1cccc(Cl)c1Cl`, at 14-3-3 protein sigma, the IC50 turned out to be 5000 nM.
